Test results reported in patent publication US7625936B2, “Mitotic kinesin inhibitors” (Merck & Co. Inc., priority 2005, dated 2009).

Target: T1, human KSP motor domain (KSP(367H)) (Homo sapiens, UniProt P52732)
T1 construct: were used to amplify the motor domain and the neck linker region; made in house; host or cells: E. coli BL21 (DE3), vector pRSETa
T1 sequence (P52732 1-367): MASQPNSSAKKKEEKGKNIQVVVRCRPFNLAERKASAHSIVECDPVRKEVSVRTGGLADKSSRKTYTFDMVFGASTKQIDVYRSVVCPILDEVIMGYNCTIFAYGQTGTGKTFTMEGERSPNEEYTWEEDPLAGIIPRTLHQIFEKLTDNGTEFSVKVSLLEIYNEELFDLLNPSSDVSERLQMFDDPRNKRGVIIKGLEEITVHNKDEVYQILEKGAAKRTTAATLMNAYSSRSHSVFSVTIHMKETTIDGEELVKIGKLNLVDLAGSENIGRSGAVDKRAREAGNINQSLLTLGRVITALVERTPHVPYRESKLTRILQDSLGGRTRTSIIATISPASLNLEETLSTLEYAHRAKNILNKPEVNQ
Experiment: Kinesin ATPase in vitro assay
Assay type: biochemical
Conditions: kinesin motor domain incubated with microtubules, 1 mM ATP and compound at 23° C.; free phosphate by quinaldine red/ammonium molybdate, absorbance 540 nm
Excerpt: I. Kinesin ATPase In Vitro Assay
Cloning and Expression of Human Poly-Histidine Tagged KSP Motor Domain (KSP(367H))
Plasmids for the expression of the human KSP motor domain construct were cloned by PCR using a pBluescript full length human KSP construct (Blangy et al., Cell, vol. 83, pp 1159-1169, 1995) as a template. The N-terminal primer 5′-[…] (SEQ.ID.NO.: 1) and the C-terminal primer 5′-[…] […] (SEQ.ID.NO.: 2)were used to amplify the motor domain and the neck linker region. The PCR products were digested with AseI and XhoI, ligated into the NdeI/XhoI digestion product of pRSETa (Invitrogen) and transformed into E. coli BL21 (DE3).
Cells were grown at 37° C. to an OD600 of 0.5. […]
The kinesin motor domain is incubated with microtubules, 1 mM ATP (1:1 MgCl2: Na-ATP), and compound at 23° C. in buffer containing 80 mM K-HEPES (pH 7.0), 1 mM EGTA, 1 mM DTT, 1 mM MgCl2, and 50 mM KCl. […] Free phosphate from the ATP hydrolysis reaction is measured via a quinaldine red/ammonium molybdate assay by adding 150 μl of quench C buffer containing a 2:1 ratio of quench A:quench B. Quench A contains 0.1 mg/ml quinaldine red and 0.14% polyvinyl alcohol; quench B contains 12.3 mM ammonium molybdate tetrahydrate in 1.15 M sulfuric acid. The reaction is incubated for 10 minutes at 23° C., and the absorbance of the phospho-molybdate complex is measured at 540 nm.

IC50	Compound
≤ 50 µM	CC(=O)N1CCN(CCC[C@@]2(c3ccccc3)CC(c3cc([Si](C)(C)C)ccc3F)=NN2C(C)=O)CC1 [Compound 3-8, 1-acetyl-4-(3-{(5S)-1-acetyl-3-[2-fluoro-5-(trimethylsilyl)phenyl]-5-phenyl-4,5-dihydro-1H-pyrazol-5-yl}propyl)piperazine]
≤ 50 µM	CC(=O)N1N=C(c2cc(F)ccc2F)CC1(CC[Si](C)(C)O)c1ccccc1 (centres unmarked) [Compound 1-5, {2-[1-acetyl-3-(2,5-difluorophenyl)-5-phenyl-4,5-dihydro-1H-pyrazol-5-yl]ethyl}(dimethyl)silanol]
